In BindingDB's records for doi:10.1016/j.bmc.2009.08.052 (Okayama University, 2009):

Experiments:
[1] = target: Beta-hexosaminidase (Homo sapiens); experiment: Mixed type inhibition of human placenta beta-N-acetylglucosaminidase by pNP-GlcNAc substrate hydrolysis assay
[2] = target: Beta-hexosaminidase (Homo sapiens); experiment: Inhibition of human placenta beta-N-acetylglucosaminidase by pNP-GlcNAc substrate hydrolysis assay

In the case of `CC(=O)NC[C@H]1[C@H](O)[C@H](O)[C@@H]2[C@H](O)C[C@@H](CO)N21` [(1R*, 3S*, 5S*, 6S*, 7R*, 7a S*)-5-acetamidomethyl-3-hydroxymethyl-1,6,7-trihydroxypyrrolizidine], the Ki [1] is reported as 1.25 nM and the IC50 [2] is reported as 2.39 nM.
